Laboratory results from patent US20060165761A1, “Wound dressings comprising vanadate complexed with organic ligands” (priority 2002, published 2006).

Columns and labels:
Adult dermal fibroblasts [1] = assay: XTT cell proliferation assay; format: cell-based; conditions: for amount of fibroblast proliferation (FIG. 2): 72 hrs; for ability to stimulate cell proliferation (overall summary): absence of growth factors
Procedure: (§1) Adult dermal fibroblasts were grown until 95% confluent, trypsinized (2 ml trypsin plate) to prepare a single suspension of fibroblasts. These cells were diluted in DMEM (+10% FBS) media and diluted to a concentration of 25000 cells/ml. […] was placed in each well of a 96 well microplate (2500 cells/well). The fibroblasts were allowed to adhere and spread by incubating for 24 hours (at 37° C., 5% CO2 in a humidified atmosphere) at which point the media was removed and replaced with serum free DMEM+/−stimulant/sample.
(§2) The following vanadate complexes were added in quadruplicate: bpV(pic) was added to a final concentration of 8.14 and 0.81 μM, bpV(bipy) (bisperoxo(bipyridine)oxovanadate) was added to a final concentration of 178 and 17.8 μM. bpV(phen) was added to a final concentration of 12 or 0.124 μM, DMHV (bis-dimethylhydroxamido vanadate, (Me2N—O)2VO(OH)) was added to a final concentration of […]. The vanadate complexes were all obtained as the solid potassium salts from Calbiochem, Catalog numbers 203705, 322130, and 203695.
Negative control samples were untreated and positive control samples were cells treated with DMEM containing 10% FBS or 0.15 ng/ml epidermal growth factor. As a further positive control, Dephostatin (a known tyrosine protein phosphatase inhibitor obtained from Calbiochem, catalog number 263200) was added to a final concentration of 23.8 μM. […]
After 72 hrs the fluid was aspirated off and […] of the XTT labelling mixture (prepared by adding 0.1 ml Electron coupling reagent to every 5 mls of XTT labelling reagent) was added to each well. The plates were read at 450 nm, using a MR5000 plate reader at 2, 2.5 and 3.5 hrs.

Adult dermal fibroblasts [2] = assay: Determination of collagen levels (ELISA) deposited by fibroblasts; format: cell-based; conditions: for ability to stimulate collagen deposition (overall summary): absence of growth factors
Procedure: as §1, §2
Negative control samples were untreated and positive control samples were cells treated with DMEM containing 10% FBS or 0.15 ng/ml epidermal growth factor. As a further positive control, Dephostatin (a known tyrosine protein phosphatase inhibitor obtained from Calbiochem, catalog number 263200) was added to a final concentration of 23.8 μM.
Additional experiments were performed using the phosphatase inhibitors indicated above in the presence of epidermal growth factor (0.015 ng/ml) or platelet derived growth factor (6 ng/ml).
The amount of collagen produce and deposited into the extracellular environment under each experimental condition was measured using an ELISA method. Collagen type I standards (Sigma cat no 7774, lot 32K3775) and material aspirated from the fibroblasts were coated onto 96 well plates (FALCON 3072) by incubation at 37° C. for 30 min. Non-specific sites were blocked by the addition of […] of 5% solution of bovine serum albumin (BSA) for 30 min. Each well was incubated with a monoclonal antibody against collagen used at a dilution of 1/2000 ((sigma cat no. 2456, lot 081K4897) overnight at 4° C. Samples were washed five times for 5 minutes in wash buffer (PBS+0.05% (v/v) TWEEN-20) and incubated with an HRP-conjugated second antibody against mouse IgG at a dilution of 1/10000 for 2 hr. Each well was washed five times in wash buffer. Deposited collagen was detected using the Sigma FAST method used according to the manufacturers instructions. The plates were incubated at room temperature for 30 minutes and read using a MR5000 plate reader at 450 nm.

acute wounds in rats = conditions: vanadate ingestion; cited from earlier work
[3] = system: capillary endothelial cells; conditions: in vitro; mimics fibroblast growth factor; cited from earlier work
bone cell = conditions: in vitro; cited from earlier work

CN(C)[O][V](=[O])([OH])[O]N(C)C [DMHV, bis-dimethylhydroxamido vanadate, (Me2N—O)2VO(OH)]
amount of fibroblast proliferation (FIG. 2) (Adult dermal fibroblasts [1]; 64 μM, compared to negative control): greater than the negative control
ability to stimulate cell proliferation (overall summary) (Adult dermal fibroblasts [1]): equivalent to the DMHV positive control
amount of collagen deposited by fibroblasts (FIG. 1) (Adult dermal fibroblasts [2]; 6.4-64 μM, compared to positive control): equivalent to the positive control
ability to stimulate collagen deposition (overall summary) (Adult dermal fibroblasts [2]): equivalent to the DMHV positive control

CN(N=O)c1cc(O)ccc1O [Dephostatin, reference compound]
amount of fibroblast proliferation (FIG. 2) (Adult dermal fibroblasts [1]; 23.8 μM, compared to negative control): greater than the negative control
amount of collagen deposited by fibroblasts (FIG. 1) (Adult dermal fibroblasts [2]; 23.8 μM, compared to positive control): equivalent to the positive control

[O-2].[O-][O-].[O-][O-].[V+5].c1cnc2c(c1)ccc1cccnc12 [bpV(phen), bisperoxo-(1,10-phenanthroline)-oxovanadate]
ability to stimulate cell proliferation (overall summary) (Adult dermal fibroblasts [1]; listed as bpV (Phen)): inhibitor of proliferation
ability to stimulate cell proliferation (overall summary) (Adult dermal fibroblasts [1]; listed as bpV (phen)): exception
ability to stimulate cell proliferation (overall summary) (Adult dermal fibroblasts [1]; listed as bpV(Phen)): does not enhance
ability to stimulate collagen deposition (overall summary) (Adult dermal fibroblasts [2]; listed as bpV (phen)): exception
ability to stimulate collagen deposition (overall summary) (Adult dermal fibroblasts [2]; listed as bpV(Phen)): does not enhance

[Na+].[Na+].[Na+].[O]=[V]([O-])([O-])[O-] [vanadate, Sodium Orthovanadate]
gain in wound breaking strength (acute wounds in rats): increases
organisation of collagen fibres during healing (acute wounds in rats): better organised collagen fibres
endothelial cells invade collagen matrices and organise into tubules [3]: stimulates endothelial cells to invade collagen matrices and organise into tubules
bone cell proliferation (bone cell): stimulates
bone collagen synthesis (bone cell): stimulates

Bisperoxo (5-hydroxy pyridine-2-carboxyvanadate) [bpV(pic)]
amount of fibroblast proliferation (FIG. 2) (Adult dermal fibroblasts [1]; 8.14 μM, compared to non treated negative control and FBS and EGF positive controls): most effective activator cell proliferation
amount of fibroblast proliferation (FIG. 3) (Adult dermal fibroblasts [1]; 8.14 μM, compared to non treated and vanadate at 0.1 and 0.01 mmolar): more effective activator of cell proliferation
ability to stimulate cell proliferation (overall summary) (Adult dermal fibroblasts [1]): more effective than even the 10% FBS positive control
amount of collagen deposited by fibroblasts (FIG. 1) (Adult dermal fibroblasts [2]; 8.14 μm, compared to non treated negative control and FBS and EGF positive controls): most effective activator of collagen deposition
ability to stimulate collagen deposition (overall summary) (Adult dermal fibroblasts [2]): more effective than even the 10% FBS positive control

bisperoxo(bipyridine)oxovanadate [bpV(bipy)]
amount of fibroblast proliferation (FIG. 2) (Adult dermal fibroblasts [1]; 17.8 μM, compared to negative control): greater than the negative control
amount of collagen deposited by fibroblasts (FIG. 1) (Adult dermal fibroblasts [2]; 17.8 μM, compared to positive control): equivalent to the positive control
